Laboratory results reported in the CheMixHub drug solubility set.

Assay: xn = mol fraction of the nth substance listed, in the solute-free solvent

Cl.N=C(N)N + CO + CCCO
solubility (g/100 g solution)
Conditions	278.15 K	283.15 K	288.15 K	293.15 K	298.15 K	303.15 K	308.15 K	313.15 K	318.15 K	323.15 K
x2 = 0.1726	9.26	10.3	11.5	12.6	13.3	14.4	15.6	17	18.2	19.9
x2 = 0.4458	15.1	16.1	17.4	18.8	20.6	22	23.4	25.3	26.3	28.2
x2 = 0.6523	22.2	23.4	24.9	26.3	27.8	29.2	30.7	32.4	34.1	35.6
x2 = 0.8138	28.3	29.7	31.4	33.1	34.5	36.2	37.6	39.5	40.9	42.3
x2 = 0.9441	33.4	35.1	36.8	38.3	40.2	42.1	43.6	45.5	47.1	48.8

COC(=O)C(C)(C)N=NC(C)(C)C(=O)OC + CO + O
Conditions	solubility (g/100 g solution)
252.55 K, x2 = 0.692	1.72
252.85 K, x2 = 0.914	5.48
252.95 K, x2 = 0.628	1.36
253.15 K, x2 = 0.835	4.25
253.35 K, x2 = 0.511	0.455
253.45 K, x2 = 0.578	0.701
254.15 K, x2 = 0.761	2.82
254.75 K, x2 = 0.692	2.04
255.35 K, x2 = 0.628	1.61
255.55 K, x2 = 0.914	7.08
255.95 K, x2 = 0.578	0.875
255.95 K, x2 = 0.835	5.53
256.55 K, x2 = 0.511	0.546
256.65 K, x2 = 0.761	3.73
257.35 K, x2 = 0.692	3.07
257.95 K, x2 = 0.628	2.02
258.55 K, x2 = 0.578	1.31
259.05 K, x2 = 0.511	0.817
259.85 K, x2 = 0.914	9.9
260.15 K, x2 = 0.835	7.93
260.55 K, x2 = 0.761	5.93
261.05 K, x2 = 0.692	4.39
261.65 K, x2 = 0.628	2.76
262.15 K, x2 = 0.578	2.5
262.75 K, x2 = 0.511	1.35
263.35 K, x2 = 0.914	12.7
263.75 K, x2 = 0.835	9.97
263.95 K, x2 = 0.761	6.93
264.35 K, x2 = 0.692	5.15
264.85 K, x2 = 0.628	4.05
265.25 K, x2 = 0.578	3.25
265.75 K, x2 = 0.511	2.24
265.95 K, x2 = 0.914	14.4
266.15 K, x2 = 0.835	11.5
266.35 K, x2 = 0.761	8.33
267.95 K, x2 = 0.511	3.2
268.05 K, x2 = 0.628	5.71
268.05 K, x2 = 0.692	7.96
268.05 K, x2 = 0.761	9.69
268.05 K, x2 = 0.835	12.8
268.05 K, x2 = 0.914	16.6
268.25 K, x2 = 0.578	5.05
273.25 K, x2 = 0.835	20.2
273.35 K, x2 = 0.511	5.31
273.35 K, x2 = 0.578	7.79
273.35 K, x2 = 0.628	9.15
273.35 K, x2 = 0.914	26.6
273.45 K, x2 = 0.692	12.2
273.55 K, x2 = 0.761	17.3
275.55 K, x2 = 0.914	32
275.65 K, x2 = 0.511	6.38
275.65 K, x2 = 0.578	8.78
275.65 K, x2 = 0.835	25.5
275.75 K, x2 = 0.692	16.8
275.75 K, x2 = 0.761	20.5
275.85 K, x2 = 0.628	12.8
278.15 K, x2 = 0.835	32.7
278.15 K, x2 = 0.914	38.9
278.25 K, x2 = 0.761	27.3
278.35 K, x2 = 0.511	7.35
278.35 K, x2 = 0.578	10.2
278.35 K, x2 = 0.628	16
278.35 K, x2 = 0.692	21.6
280.65 K, x2 = 0.914	47.1
280.75 K, x2 = 0.692	27.6
280.75 K, x2 = 0.761	33.4
280.75 K, x2 = 0.835	39.1
280.85 K, x2 = 0.628	20.5
280.95 K, x2 = 0.578	15.1
281.05 K, x2 = 0.511	9.61
283.05 K, x2 = 0.578	21
283.05 K, x2 = 0.835	51.4
283.05 K, x2 = 0.914	55.7
283.15 K, x2 = 0.692	36.3
283.15 K, x2 = 0.761	44.2
283.45 K, x2 = 0.511	12.7
283.45 K, x2 = 0.628	28.1
285.65 K, x2 = 0.835	62.4
285.65 K, x2 = 0.914	66.9
285.75 K, x2 = 0.578	29.5
285.75 K, x2 = 0.628	39
285.75 K, x2 = 0.692	48.6
285.75 K, x2 = 0.761	56.4
285.85 K, x2 = 0.511	19.1
288.15 K, x2 = 0.578	42.6
288.15 K, x2 = 0.628	55.9
288.25 K, x2 = 0.761	71.5
288.25 K, x2 = 0.835	75.3
288.25 K, x2 = 0.914	78.2
288.35 K, x2 = 0.692	65.6
290.65 K, x2 = 0.628	77.7
290.65 K, x2 = 0.914	86.1
290.75 K, x2 = 0.692	81.5
290.75 K, x2 = 0.761	83.9
290.75 K, x2 = 0.835	85.1
293.15 K, x2 = 0.761	91.5
293.15 K, x2 = 0.835	91.5
293.15 K, x2 = 0.914	91.9
293.25 K, x2 = 0.692	91.2
293.35 K, x2 = 0.628	91.1

Nc1nccnc1Cl + CO + O
solubility (g/100 g solution)
Conditions	278.15 K	283.15 K	288.15 K	293.15 K	298.15 K	303.15 K	308.15 K	313.15 K	318.15 K	323.15 K
x2 = 0.05881	0.0549	0.0728	0.0951	0.118	0.143	0.169	0.195	0.225	0.254	0.284
x2 = 0.1233	0.118	0.155	0.201	0.248	0.298	0.348	0.402	0.461	0.517	0.578
x2 = 0.1942	0.209	0.274	0.352	0.433	0.519	0.604	0.695	0.795	0.89	0.996
x2 = 0.2727	0.322	0.42	0.538	0.661	0.79	0.918	1.06	1.21	1.35	1.51
x2 = 0.3599	0.423	0.542	0.697	0.868	1.06	1.24	1.44	1.66	1.86	2.1
x2 = 0.4576	0.533	0.708	0.918	1.15	1.37	1.6	1.86	2.13	2.4	2.73
x2 = 0.5675	0.656	0.886	1.15	1.42	1.7	1.98	2.31	2.65	3.02	3.44
x2 = 0.6923	0.804	1.06	1.35	1.67	1.97	2.3	2.71	3.13	3.58	4.07
x2 = 0.835	0.917	1.2	1.55	1.95	2.37	2.78	3.25	3.75	4.25	4.86

S=c1[nH]ncs1 + CO + O
solubility (g/100 g solution)
Conditions	278.15 K	283.15 K	288.15 K	293.15 K	298.15 K	303.15 K	308.15 K	313.15 K	318.15 K	323.15 K
x2 = 0.1	0.5	0.691	0.906	1.21	1.6	2.03	2.55	3.35	4.36	5.36
x2 = 0.2	0.926	1.24	1.54	2.06	2.68	3.38	4.35	5.66	6.96	8.64
x2 = 0.3	1.39	1.97	2.65	3.39	4.42	5.59	7.12	9.03	11.2	13.9
x2 = 0.4	2.53	3.26	4.24	5.33	6.73	8.48	10.5	13.2	16.4	19.8
x2 = 0.5	3.89	4.96	6.04	7.5	9.43	11.5	13.7	16.8	20	23.9
x2 = 0.6	5.2	6.6	8.03	9.72	11.6	14	17	19.9	23.3	27.5
x2 = 0.7	6.84	8.43	10.2	12	14.1	16.4	19.3	22.6	26.2	29.6
x2 = 0.8	8.37	10.1	11.9	13.8	16	18.5	21.4	24.6	28.2	31.5
x2 = 0.9	10.1	11.9	13.7	15.8	18	20.5	23.4	26.6	30	33.2

c1ccc2[nH]c(-c3cscn3)nc2c1 + CO + O
solubility (g/100 g solution)
Conditions	283.15 K	288.15 K	293.15 K	298.15 K	303.15 K	308.15 K	313.15 K	318.15 K	323.15 K
x2 = 0.05881	0.00229	0.00287	0.00369	0.00466	0.00574	0.00699	0.00862	0.0104	0.0128
x2 = 0.1233	0.0131	0.0159	0.0194	0.0238	0.0278	0.0335	0.0401	0.0473	0.0561
x2 = 0.1942	0.0339	0.0408	0.0481	0.0566	0.0663	0.0786	0.0909	0.105	0.122
x2 = 0.2727	0.0719	0.0844	0.101	0.119	0.139	0.161	0.187	0.216	0.246
x2 = 0.3599	0.131	0.154	0.181	0.206	0.242	0.278	0.317	0.364	0.412
x2 = 0.4576	0.21	0.243	0.283	0.328	0.368	0.419	0.477	0.541	0.616
x2 = 0.5675	0.329	0.373	0.425	0.486	0.554	0.62	0.697	0.779	0.874
x2 = 0.6923	0.478	0.542	0.614	0.69	0.779	0.87	0.967	1.07	1.19
x2 = 0.835	0.643	0.725	0.815	0.914	1.02	1.13	1.25	1.38	1.52
